Results as given in patent publication US6649639B2, “Antipicornaviral compounds, compositions containing them, and methods for their use” (priority 1997, dated 2003).
pEC50, pKi: −log10 of the molar value.

Experiments:
HRV serotype-14 = assay: Antirhinoviral HI-HeLa Cell Culture Assay (XTT cell protection), HRV-14; type: cell-based, human rhinovirus; conditions: HRV serotype-14, HI-HeLa cells
Experimental: (§1) In the Cell Protection Assay, the ability of compounds to protect cells against HRV infection was measured by the XTT dye reduction method. This method is described in Weislow, O. S., Kiser, R., Fine, D. L., Bader, J., Shoemaker, R. H., Boyd, M. R., J. Natl. Cancer Inst. 1989, 81, 577-586, the disclosure of which is incorporated herein by reference.
(§2) Infected or mock-infected cells were suspended at 8×10^5 cells per mL and incubated with appropriate concentrations of compounds of formula I. Two days later, XTT/PMS was added to test plates, and the amount of formazan produced was quantified spectrophotometrically at 450/650 nm. […] The therapeutic index (TI) was calculated by dividing the CC50 by the EC50.
(§3) All strains of human rhinovirus (HRV) for use in this assay were purchased from American Type Culture Collection (ATCC) except for HRV serotype-14, which was produced from the infectious cDNA clone constructed and supplied to Applicants by Dr. Robert Rueckert at the Institute for Molecular Virology, University of Wisconsin, Madison, Wis. HRV stocks were propagated, and viral assays were performed in HI-HeLa cells (ATCC). Cells were grown in Minimal Essential Medium, available from Life Technologies, with 10% fetal bovine serum.
(§4) The compounds were tested against control compounds WIN 51711, WIN 52084, and WIN 54954, all obtained from Sterling-Winthrop Pharmaceuticals, and control compound Pirodavir, obtained from Janssen Pharmaceuticals. Antiviral data obtained for the test compounds are shown in Table 2 where all data are for HRV serotype-14 unless otherwise noted in parentheses.

[1] = target: T1, Recombinant Rhinovirus 3C protease serotype 14 (Human rhinovirus 14, UniProt P03303); assay: Inhibition of Rhinovirus Protease (FRET assay), serotype 14; type: biochemical, human rhinovirus (HRV) serotype 14; conditions: for kobs/I: RVP serotype-14, enzyme start progress curves
T1 construct: Recombinant Rhinovirus 3C proteases from serotypes 14, 16, and 2; made in house

HI-HeLa cells [2] = assay: Cytotoxicity (CC50) in mock-infected HI-HeLa cells, antirhinoviral assay; type: cell-based
HRV serotype 1A = assay: Antirhinoviral HI-HeLa Cell Culture Assay (XTT cell protection), HRV serotype 1A; type: cell-based, human rhinovirus; conditions: HI-HeLa cells
Experimental: as §1, §2, §3, §4

HRV serotype 10 = assay: Antirhinoviral HI-HeLa Cell Culture Assay (XTT cell protection), HRV serotype 10; type: cell-based, human rhinovirus; conditions: HRV serotype 10, HI-HeLa cells
Experimental: as §1, §2, §3, §4

HRV serotype 2 = assay: Antirhinoviral HI-HeLa Cell Culture Assay (XTT cell protection), HRV serotype 2; type: cell-based, human rhinovirus; conditions: HRV serotype 2, HI-HeLa cells
Experimental: as §1, §2, §3, §4

HRV serotype 89 = assay: Antirhinoviral HI-HeLa Cell Culture Assay (XTT cell protection), HRV serotype 89; type: cell-based, human rhinovirus; conditions: HRV serotype 89, HI-HeLa cells
Experimental: as §1, §2
as §3, with “serum. […]” for “serum.”

HRV serotype 39 = assay: Antirhinoviral HI-HeLa Cell Culture Assay (XTT cell protection), HRV serotype 39; type: cell-based, human rhinovirus; conditions: HRV serotype 39, HI-HeLa cells
Experimental: as §1, §2
as §3, with “serum. […]” for “serum.”

HI-HeLa cells [3] = assay: Cytotoxicity (CC50) in uninfected HI-HeLa cells, anticoxsackieviral assay; type: cell-based; conditions: CVA-21 assay
Experimental: The Coxsackie strain A-21 (CVA-21) was purchased from American Type Culture Collection (ATCC). Virus stocks were propagated, and antiviral assays were performed in HI-HeLa cells (ATCC). Cells were grown in Minimal Essential Medium with 10% fetal bovine serum.
The ability of compounds to protect cells against CVA-21 infection was measured by the XTT dye reduction method. This method is described in Weislow, O. S., Kiser, R., Fine, D. L., Bader, I., Shoemaker, R. H., Boyd, M. R., J. Natl. Cancer Inst. 1989, 81, 577-586, the disclosure of which is incorporated herein by reference. HI-HeLa cells were infected with CVA-21 at a multiplicity of infection (m.o.i.) of 0.05 (CVA-21) or mock-infected with medium only. Infected or uninfected cells were resuspended at 4×10^4 cells per mL and incubated with appropriate concentrations of drug. One day later, XTT/PMS was added to test plates, and the amount of formazan produced was quantified spectrophotometrically at 450/650 nm. […] The therapeutic index (Th) was calculated by dividing the CC50 by the EC50.

[4] = target: Recombinant Rhinovirus 3C protease serotype 2 (Human rhinovirus 2, UniProt P04936); conditions: RVP serotype 2; enzyme start progress curves
Experimental: (§5) Stock solutions (50 mM, in DMSO) of various compounds were prepared; dilutions were in the same solvent. […] Assays contained 2% DMSO, 50 mM tris pH 7.6, 1 mM EDTA, a compound at the indicated concentrations, approximately 1 μM substrate, and 50-100 nM protease. […] The kobs/I values were obtained from reactions initiated by addition of enzyme rather than substrate. RVP activity is measured in the fluorescence resonance energy transfer assay.
(§6) In the above table, all data are for RVP serotype-14 unless otherwise noted in parentheses. All strains of human rhinovirus (HRV) were purchased from American Type Culture Collection (ATCC) except for serotype 14, which was produced from the infectious cDNA clone constructed and supplied to Applicants by Dr. Robert Rueckert at the Institute for Molecular Virology, University of Wisconsin, Madison, Wis. The column designated INHIB represents the percent inhibition at 10 minute preincubation with 50 nM RVP prior to addition of substrate. The data in the column designated kobs/I was measured from progress curves in enzyme start experiments.

[5] = target: Recombinant Rhinovirus 3C protease serotype 16 (Human rhinovirus 16, UniProt Q82122); conditions: RVP serotype 16; enzyme start progress curves
Experimental: as §5, §6

HRV serotype 16 = assay: Antirhinoviral HI-HeLa Cell Culture Assay (XTT cell protection), HRV serotype 16; type: cell-based, human rhinovirus; conditions: HRV serotype 16, HI-HeLa cells
Experimental: as §1, §2
as §3, with “serum. […]” for “serum.”

T1 sequence (P03303 1538-1719): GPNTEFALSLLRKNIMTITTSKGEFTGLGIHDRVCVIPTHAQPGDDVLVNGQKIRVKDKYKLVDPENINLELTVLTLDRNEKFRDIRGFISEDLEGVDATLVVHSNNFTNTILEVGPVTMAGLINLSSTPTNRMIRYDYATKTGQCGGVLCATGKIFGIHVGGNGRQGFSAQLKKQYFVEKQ
Recombinant Rhinovirus 3C protease serotype 2, sequence (P04936 1508-1690): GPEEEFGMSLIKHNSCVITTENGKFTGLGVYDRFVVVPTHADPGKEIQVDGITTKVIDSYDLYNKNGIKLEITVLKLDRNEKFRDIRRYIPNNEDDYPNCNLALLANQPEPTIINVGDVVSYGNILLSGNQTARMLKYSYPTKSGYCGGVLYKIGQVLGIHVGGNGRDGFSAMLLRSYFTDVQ
Recombinant Rhinovirus 3C protease serotype 16, sequence (Q82122 1511-1693): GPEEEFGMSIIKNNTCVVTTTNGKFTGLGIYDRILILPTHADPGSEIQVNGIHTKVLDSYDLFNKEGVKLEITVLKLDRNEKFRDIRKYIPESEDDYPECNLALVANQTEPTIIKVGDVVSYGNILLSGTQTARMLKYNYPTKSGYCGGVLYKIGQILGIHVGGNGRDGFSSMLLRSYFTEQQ

Compound	pEC50 (HRV serotype-14)	CC50 (HI-HeLa cells [2]; line of HRV serotype-14) [nM]	pEC50 (HRV serotype 1A)	pEC50 (HRV serotype 10)	CC50 (HI-HeLa cells [2]; line of HRV serotype 1A) [nM]	CC50 (HI-HeLa cells [2]; line of HRV serotype 10) [nM]	also measured
CC(C)C(NC(=O)C1SCCS1)C(=O)CC(Cc1ccc(F)cc1)C(=O)NC(C=CC(=O)OCc1cccnc1)CCC(N)=O (stereo not drawn) [Compound 30]	5.82	> 100000					kobs/I [1]: 292,000 M^−1sec^−1
CCOC(=O)C=CC(CCC(N)=O)NC(=O)C(CC(=O)C(NC(=O)C1SCCCS1)C(C)C)Cc1ccc(F)cc1 (stereo not drawn) [Compound 31]		> 3000	5.20	5.33	> 3000	> 3000	
CCOC(=O)/C=C/[C@H](CCC(N)=O)NC(=O)[C@@H](CC(=O)[C@H](CC(C)C)NC(=O)SC1CCCC1)Cc1ccccc1 [Compound 8, Ethyl-3-(CyPentylSCO-L-LeuΨ[COCH2]-L-Phe-L-Gln)-E-Propenoate]	6.72	> 100000					
CCOC(=O)C=CC(CCC(N)=O)NC(=O)C(CC(=O)C(NC(=O)SC(C)(C)C)C(C)C)Cc1ccc(F)cc1 (stereo not drawn) [Compound 26]	7.30	> 10000		6.26	> 10000	> 10000	
CCOC(=O)C=CC(CCC(N)=O)NC(=O)C(CC(=O)C(NC(=O)c1cc(C)on1)C(C)C)Cc1ccc(F)cc1 (stereo not drawn) [Compound 34]		> 3000	6.52	6.40	> 3000	> 3000	
CCOC(=O)/C=C/C(CCC(N)=O)NC(=O)C(CC(=O)C(NC(=O)SC1CCCC1)C(C)C)Cc1ccccc1 [Compound 7, Ethyl-3-(CyPentylSCO-L-ValΨ[COCH2]-L-Phe-L-Gln)-E-Propenoate]	7.66	> 10000		7.46		> 10000	pEC50 (HRV serotype 2): 7.00; pEC50 (HRV serotype 89): 8.40; pEC50 (HRV serotype 39): 6.89; CC50 (HI-HeLa cells [2]; line of HRV serotype 2): > 10000 nM; CC50 (HI-HeLa cells [2]; line of HRV serotype 39): > 10000 nM; CC50 (HI-HeLa cells [2]; line of HRV serotype 89): > 10000 nM; CC50 (HI-HeLa cells [3]): > 10000 nM
Ethyl-3-(CyPentylSCO-L-CyhexΨ[COCH2]-L-(p-F)Phe-L-Gln)-E-Propenoate [Compound 24]	7.49						
CC(C)C(NC(=O)SC(C)(C)C)C(=O)CC(Cc1ccc(F)cc1)C(=O)NC(C=CC(=O)OCc1cccnc1)CCC(N)=O (stereo not drawn) [Compound 32]	6.40	> 32000	5.66	5.72	> 32000	> 32000	kobs/I [1]: 58,000 M^−1sec^−1
CCOC(=O)/C=C/[C@H](CCC(N)=O)NC(=O)[C@@H](CC(=O)[C@@H](NC(=O)SCC)C(C)C)Cc1ccc(C)cc1 [Compound 10, Ethyl-3-(EtSCO-L-ValΨ[COCH2]-L-(p-CH3)Phe-L-Gln)-E-Propenoate]	7.96	> 1000					pEC50 (HRV serotype 2): 6.74; CC50 (HI-HeLa cells [2]; line of HRV serotype 2): > 1000 nM
CCOC(=O)/C=C/C(CCC(N)=O)NC(=O)C(CC(=O)C(NC(=O)SCc1ccccc1)C(C)C)Cc1ccccc1 [Compound 5, Ethyl-3-(BnSCO-L-ValΨ[COCH2]-L-Phe-L-Gln)-E-Propenoate]	6.72	> 320000					
CC(C)C(NC(=O)SC1CCCC1)C(=O)CC(Cc1ccc(F)cc1)C(=O)NC(C=CC(=O)OCCO)CCC(N)=O (stereo not drawn) [Compound 33]	6.29	> 32000	5.77	5.80	> 32000	> 32000	kobs/I [1]: 281,000 M^−1sec^−1
CC(C)CC(NC(=O)SCc1ccccc1)C(=O)CC(Cc1ccccc1)C(=O)NC(C=CC(=O)N1CCc2ccccc21)CCC(N)=O [Compound 3, (2,3-Dihydroindole)-3-(BnSCO-L-LeuΨ[COCH2]-L-Phe-L-Gln)-E-Propenamide]							pKi [1]: < 5.15
CCOC(=O)/C=C/C(CCC(N)=O)NC(=O)C(CC(=O)C(CC(C)C)NC(=O)OCc1ccccc1)Cc1ccccc1 [Compound 1, Ethyl-3-(CBZ-L-LeuΨ[COCH2]-L-Phe-L-Gln)-E-Propenoate]	6.44	> 320000					kobs/I [4]: 2,242 M^−1sec^−1; kobs/I [5]: 3,880 M^−1sec^−1; kobs/I [1]: 17,380 M^−1sec^−1
CCOC(=O)C=CC(CCC(N)=O)NC(=O)C(CC(=O)C(NC(=O)C1SCCS1)C(C)C)Cc1ccc(F)cc1 (stereo not drawn) [Compound 27]		> 1000		5.48	> 1000	> 1000	
CCOC(=O)/C=C/[C@H](CCC(N)=O)NC(=O)[C@@H](CC(=O)[C@H](CC(C)C)NC(=O)SCC)Cc1ccccc1 [Compound 2, Ethyl-3-(EtSCO-L-LeuΨ[COCH2]-L-Phe-L-Gln)-E-Propenoate]	6.62	> 320000					pEC50 (HRV serotype 2): 5.74; CC50 (HI-HeLa cells [2]; line of HRV serotype 2): > 320000 nM
CCOC(=O)/C=C/C(CCC(N)=O)NC(=O)C(CC(=O)C(CC(C)C)NC(=O)SCc1ccccc1)Cc1ccccc1 [Compound 6, Ethyl-3-(BnSCO-L-LeuΨ[COCH2]-L-Phe-L-Gln)-E-Propenoate]	6.17	> 100000					
CCOC(=O)/C=C/C(CCC(N)=O)NC(=O)C(CC(=O)C(NC(=O)SC1CCCC1)C(C)C)Cc1ccc(C)cc1 [Compound 11, Ethyl-3-(CyPentylSCO-L-ValΨ[COCH2]-L-(p-CH3)Phe-L-Gln)-E-Propenoate]	8.22	> 3000	6.80	7.22	> 3000	> 3000	pEC50 (HRV serotype 16): 7.60; pEC50 (HRV serotype 2): 6.92; pEC50 (HRV serotype 39): 6.89; CC50 (HI-HeLa cells [2]; line of HRV serotype 2): > 3000 nM; CC50 (HI-HeLa cells [2]; line of HRV serotype 16): > 3000 nM; CC50 (HI-HeLa cells [2]; line of HRV serotype 39): > 3000 nM
CC(C)C(NC(=O)SC1CCCC1)C(=O)CC(Cc1ccc(F)cc1)C(=O)NC(C=CC(=O)OCc1cccnc1)CCC(N)=O (stereo not drawn) [Compound 28]		> 10000	6.22	6.00	> 10000	> 10000	
Cc1cc(CCCCCOc2c(Cl)cc(C3=NCCO3)cc2Cl)on1 [WIN 54954, reference compound]							CC50 (HI-HeLa cells [3]): > 100000 nM
CCOC(=O)/C=C/[C@H](CCC(N)=O)NC(=O)[C@@H](CC(=O)[C@@H](NC(=O)SCC)C(C)C)Cc1ccccc1 [Compound 4, Ethyl-3-(EtSCO-L-ValΨ[COCH2]-L-Phe-L-Gln)-E-Propenoate]	7.00	> 320000					pEC50 (HRV serotype 2): 6.30; CC50 (HI-HeLa cells [2]; line of HRV serotype 2): > 320000 nM
